From patent publication US12358859B2, “Series of compounds for treatment of skin diseases and other conditions” (Unigen, Inc., priority 2018, dated 2025)
In brackets after ≈: the same amount, converted by molar mass. Read-outs that look alike come from different tables or passages of the source.

Legend:
[1] = test system: Propionibacterium acnes (ATCC11827); experiment: P-acne MIC/MBC test; assay type: cell-based; details: for MIC: lowest level that inhibits growth, turbidity, 1 day
Experimental: The anti-microbial activity of the tested compounds were evaluated using published methods (Modugno e. al. (1994) Antimicrobial agents and Chemotherapy 38: 2362-2368; […] et. al. (1973) Antimicrobial agents and Chemotherapy 3: 40-48. Propionibacterium acnes (ATCC11827) was cultured for 20 hours at 37° C. in Reinforced Clostridal medium. The test article and positive control were dissolved in 1% DMSO with an incubation volume of 1 mL. The time of assessment was 1 day. Measurement of turbidity was used as the method of quantification. The compounds were tested in duplicate at concentrations of 250 ug/mL, 125 ug/mL, 62 ug/mL, 31 ug/mL, 16 ug/mL, 8 ug/mL, 4 ug/mL, 2 ug/mL relative to positive control ampicillin at 0.1 ug/mL.

[2] = target: 5-lipoxygenase from potato; experiment: Lipoxygenase Inhibition Assay; assay type: biochemical; details: read-out: Anti-inflammatory (IC50) 5-LOX
Experimental: One of the most important pathway involved in the inflammatory response is produced by non-heme, ion-containing lipoxygenases (5-LOX, 12-LOX and 15-LOX) which catalyze the oxidation of fatty acids such as AA to produce the hydoperoxides 5-, 12- and 15-HEPTE, which are then converted to leukotrienes. A Lipoxygenase Inhibition Assay was carried out using commercial kit from Cayman Chemical (cat #760700, 5-lipoxygenase from potato, cat #60400). The test article and positive control were dissolved in 1% DMSO. 90 μL of diluted potato lipoxygenase enzyme and 10 μL inhibitor were added to a flat-bottom clear 96-well microplate. The plate was pre-incubated for five minutes at room temperature. The reaction was initiated by the addition of 10 μL linoleic acid substrate. The plate was then placed on a shaker for 10 minutes at room temperature. 100 μL Chromogen solution was added to each well and the plate was shaken again for five minutes. The absorbance was read at 492 nm using a TECAN Genios plate reader. The inhibitor concentration vs. % of inhibition was plotted and the IC50 determined.

[3] = target: T1, COX-1 (Ovis aries, UniProt P05979); experiment: COX-1 enzymatic inhibition assay; assay type: biochemical; details: for IC50: read-out: Anti-inflammatory (IC50) COX-1
T1 construct: purchased Cayman Chemical 701050
T1 sequence (P05979 25-600): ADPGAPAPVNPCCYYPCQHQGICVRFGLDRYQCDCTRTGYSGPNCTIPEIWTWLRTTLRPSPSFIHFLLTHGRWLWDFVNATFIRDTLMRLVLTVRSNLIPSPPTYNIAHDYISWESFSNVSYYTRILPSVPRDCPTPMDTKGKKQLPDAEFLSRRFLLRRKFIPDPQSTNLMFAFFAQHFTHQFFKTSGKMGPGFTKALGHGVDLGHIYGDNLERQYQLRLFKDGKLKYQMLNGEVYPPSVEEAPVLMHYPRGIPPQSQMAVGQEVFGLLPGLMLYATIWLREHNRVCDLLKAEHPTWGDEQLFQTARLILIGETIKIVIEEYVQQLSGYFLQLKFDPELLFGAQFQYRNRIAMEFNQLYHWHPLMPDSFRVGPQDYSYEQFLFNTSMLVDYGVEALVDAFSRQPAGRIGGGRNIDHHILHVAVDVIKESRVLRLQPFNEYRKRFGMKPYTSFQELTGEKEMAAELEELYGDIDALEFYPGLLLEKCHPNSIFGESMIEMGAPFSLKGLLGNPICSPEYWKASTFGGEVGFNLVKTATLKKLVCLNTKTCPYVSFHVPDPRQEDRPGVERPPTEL
Experimental: In order to screen for compounds that inhibited COX-1 and Cox-2 activity, enzymatic inhibition assay kits were purchased from Cayman Chemical (cat #701050). Briefly, the compound being examined was treated against a fixed amount of COX-1 and COX-2 enzymes. A cleavable, peroxide chromophore was included in the assay to visualize the peroxidase activity of each enzyme in presence of arachidonic acid as […]. Typically, assays were performed in 96-well format. Each inhibitor, taken from a 1 M stock solution in 100% DMSO, was tested in duplicate at room temperature using the following range of concentrations: 1.9, 3.9, 7.8, 15.6, 31.2, 62.5, 125, 250, 500, and 1000 μM. To each well, 150 μL of Assay Buffer was added along with 10 μL of Hemin, 10 μL of inhibitor diluted in DMSO and 10 μL of either COX-1 or COX-2 enzyme. The compounds were incubated for 5 minutes at room temperature, followed by the addition of 20 μL of Colormietric Substrate solution and 20 μL of arachidonic acid solution to initiate the reaction. The plate was mixed and incubated for 2 minutes before reading the absorbance at 590 nm. The inhibitor concentration vs. % of inhibition was plotted and the IC50 determined.

[4] = test system: reconstructed skin (keratinocytes and melanocytes); experiment: Reconstructed human skin model (Melanoderm); assay type: cell-based; details: for toxicity on reconstructed skin: at 0.05%; for whitening effects on melanocytes: topical, photographs after 14 days; for significant whitening of melanocytes observed as early as: after the beginning of the experiment (data not shown); for alterations of cell morphology / whitening effects on skin melanocytes: applied topically for 15 days
Experimental: The skin whitening effects of test compounds were studied using a reconstructed skin model, Melanoderm™ provided by MatTek Corp. (Ashland, Mass.) according to the manufacturer's specifications. Briefly, normal human epidermal keratinocytes and normal human melanocytes derived from dark skin donors were co-cultured on a surface of collagen-coated membrane to form multi-layered, highly differentiated skin tissue (MEL-300-B). The tissues were maintained in the CO2, incubator at 37° C. The apical surfaces of the reconstructed skin (9 mm in diameter) were exposed to air whereas the bottom surfaces remained in contact with 5 mL of maintenance medium, containing skin differentiating factors (EPI-100-NNM-113). Test compounds were formulated in 80% propylene glycol as follows: 10 mg of each test compound was dissolved in DMSO and diluted with 80% propylene glycol (1,2-propanediol, Sigma-Aldrich) to stock concentrations. The compounds were then sterilized by passing through 0.2 um filter and diluted in sterile water/propylene glycol to final test concentrations in 0.5% DMSO, 80% propylene glycol. In addition, the following controls were used: 80% propylene glycol with 0.5% DMSO, and 1% kojic acid in 80% propylene glycol.
‘Test compounds were applied to the apical surface of the tissues as follows: 25 μl of each test compound, 25 μl of 80% propylene glycol (vehicle control), and 25 μl of 1% kojic acid (positive control). The samples were reapplied every other day for 14 days. All the samples were tested in duplicate. At the end of the experiment microscopic images were taken.
The potential skin-whitening properties of test compounds were explored in a reconstructed skin model. The model consists of normal, human-derived epidermal keratinocytes and melanocytes, which have been co-cultured to form a multilayered, highly differentiated human epidermis. In this study the melanocytes were obtained from a highly pigmented donor.
Different concentrations of test compounds, 80% propylene glycol (the vehicle control), or 1% kojic acid (positive control) were repeatedly applied topically on the surface of the reconstructed skin for 15 days. […] Photographs of skin specimen taken after 15 days of the experiment show significant dose-dependent whitening effects on melanocytes, which appear on photographs as dark dendritic cells.

[5] = Cutibacterium acnes, ATCC11827, 24 h, read-out: MIC
[6] = Cutibacterium acnes, ATCC11827, lowest concentration required to kill the bacterium, read-out: MBC

Anti-inflammatory (IC50) COX-1 [3] | Structure (SMILES) | MIC [1, 5] [µg/mL] | IC50 [2] [µM] | toxicity on reconstructed skin [4] | whitening effects on melanocytes [4] | MBC [1, 6] [µg/mL] | IC50 [3] [µM] | significant whitening of melanocytes observed as early as [4] [days] | alterations of cell morphology [4] | whitening effects on skin melanocytes [4] | MBC ([1]; lowest concentration required to kill the bacterium) [ppm] | MIC [1] [ppm]
No Inhibition | CC(C)=CCCC(C)/C=C/c1ccc(O)cc1 (stereo not drawn) [Compound 5, (E)-4-(3,7-dimethylocta-1,6-dienyl)phenol] | < 3.9 | 50 | – | – | – | – | – | – | – | – | –
– | CC(C)=CCC/C(C)=C/c1cc(O)cc(O)c1 [Compound 4, (E/Z)-5-(2,6-dimethylhepta-1,5-dienyl)benzene-1,3-diol] | < 3.9 | 317 | some toxicity | significant whitening effects | < 3.9 | 64 | – | – | – | – | –
– | CC(C)=CCCC(C)/C=C/c1ccc(O)cc1O (stereo not drawn) [Compound 6, (E)-4-(3,7-dimethylocta-1,6-dienyl) benzene-1,3-diol] | 3.9 (≈ 15.8 µM) | 307 | – | significant whitening effects | 3.9 to 31.3 (≈ 15.8 to 127 µM) | 74 | 3 | without causing any detectable alterations | significant whitening effects | – | –
– | CC(C)=CCCC(C)=Cc1ccc(O)cc1 (mixture of isomers) [Compound 1, (E/Z)-4-(2,6-dimethylhepta-1,5-dienyl)phenol] | < 3.9 | 90 | – | significant whitening effects | < 3.9 | 122 | 3 | without causing any detectable alterations | significant whitening effects | <3.9 | <3.9
– | CC(C)=CCCC(C)/C=C/c1cc(O)cc(O)c1 (stereo not drawn) [Compound 7, (E)-5-(3,7-dimethylocta-1,6-dienyl) benzene-1,3-diol] | 7.8 (≈ 31.7 µM) | 143 | some toxicity | significant whitening effects | 7.8 to 31.3 (≈ 31.7 to 127 µM) | 25 | – | – | – | – | –
– | CC(C)=CCCC(C)C/C=C\c1cc(O)cc(O)c1 (stereo not drawn) [Compound 15, (Z)-5-(4,8-dimethylnona-1,7-dienyl) benzene-1,3-diol] | < 3.9 | 90 | some toxicity | significant whitening effects | < 3.9 | 122 | – | – | – | – | –
